Three molecules from patent US20020197244A1, “Compositions and methods for regulating phagocytosis and ICAM-1 expression” (priority 1998, published 2002) can be followed below.

Test [1] deals with Keratinocytes. The test can be described thus: F-actin staining of keratinocytes. The class given is cell-based. Conditions: Compound I 10 nM, STI 0.1 mg/ml, SLIGRL 5 μM; FIG. 9. How it is done:
Therefore, the organization of F-actin filaments following PAR-2 modulation was tested. Keratinocytes were treated with Compound I (10 nM), STI (0.1 mg/ml), or with SLIGRL (5 μM) as described in Example 1, and stained for F-actin using standard techniques.

The subject of test [2] is human keratinocyte cell line HaCaT. The experiment in a line: Fluorescent microsphere ingestion by keratinocyte cell line HaCaT. Type of test: cell-based. Conditions: FIG. 2. The method, then: In order to study the role of the PAR-2 pathway in phagocytosis, several in vitro model systems were used. One system used contained primary human keratinocytes or a human keratinocyte cell line. In this and a number of following examples, cells were treated with test compounds for different amounts of time (from one hour to three days), and samples were then incubated with fluorescent microspheres for two hours. The beads ingested by the cells were photographed using fluorescence microscopy.
(§1) In this example, human primary keratinocytes or the human keratinocyte cell line HaCaT were used as in vitro model systems to study the effect of PAR-2 regulators on keratinocyte phagocytosis. The human primary keratinocytes used are commercially available from Clonetics (San Diego, Calif.). Cells were plated on chamber slides, at 2 chambers/slide and 60,000 cells/chamber. Cells were treated once daily, for two or three days, with Compound I (1μM), SLIGRL (10μM), or vehicle (Phosphate-buffered saline, (“PBS”) from Gibco-BRL (Gaithersburg, Md.). After two or three days of exposure to the test compounds, cells were exposed to Nile-red or FITC fluorescent microspheres, 1 μm in diameter, 50 microspheres/cell, for two hours at 37° C. Microspheres were from Molecular Probes (Eugene, Oreg.), and were processed according to manufacturer's instructions. Following that treatment, cells were incubated with 15% Fetal Bovine Serum (“FBS”, from Gibco-BRL), for 15 minutes at 37° C. and rinsed with PBS. At that time, chambers were separated from the slides, and the slides were covered with glycerol and coverslips. Fluorescent microscopy was performed using a Zeiss Axiovert 35 or a Nikon Optiphot-2 microscope.
The same results were also obtained when the human keratinocyte cell line HaCaT was used instead of the primary keratinocytes (see FIG. 2). SLIGRL, STI and Compound I were tested for their effect on keratinocyte phagocytosis. In these experiments, the extracellular accumulation of microspheres could be washed off. […]

The next test relates to ICAM-1. The experiment in a line: ICAM-1 immunofluorescent staining of keratinocytes. The class given is cell-based, human. The note with it: vs untreated keratinocytes; FIG. 6A. How it is done: Intercellular adhesion molecule-1 (ICAM-1) is an inducible cell-surface glycoprotein that is implicated in cell-cell adhesion, cell membrane raffling and phagocytosis. Therefore, the effect of PAR-2 modulation on ICAM-1 was tested. Keratinocytes were grown in chamber slides and treated with SLIGRL, Compound I and STI as described, followed by immunofluorescent staining for ICAM-1 using standard procedures. Normal donkey serum, (used at 1:5 dilution), was obtained from Jackson Immunoresearch Laboratory (Westgrove, Pa.). A polyclonal goat anti-human ICAM-1 antibody, (used at 1:200 dilution), was obtained from R&D Systems (Minneapolis, Minn.), and FITC-conjugated donkey anti-goat antibody was obtained from Jackson Immunoresearch Laboratory. […] In untreated keratinocytes, ICAM-1 was localized mainly to the plasma membrane, with some staining at the nuclear membrane.

A further test concerns Human keratinocytes. The experiment in a line: Keratinocyte microsphere phagocytosis dose-response, image analysis. Conditions: two days; for phagocytosis with increasing concentrations: SLIGRL 0, 5 and 10M, Compound I 1 pM to 1 μM, STI 0.01 to 1 mg/ml; for % Ingestion: untreated = 100 +/− 12. Type of test: cell-based. The method, then: as §1
Dose-response Relationship Between PAR-2 Signaling and Keratinocyte Phagocytosis Human keratinocytes were treated with increasing concentrations of SLIGRL, the PAR-2 peptide activator and agonist, at 0, 5 and 10M for two days in the same manner as set forth in Example 1. […] Human keratinocytes were also treated with increasing concentrations of Compound I and STI for two days.
Image analysis of the fluorescent beads inside the keratinocytes was used as an alternative way to quantify the phagocytic effect in this system. Empire Imagins Database Version 1.1 was used on a Gateway 2000 P5-100 computer (Media Cybernetics, Silver Springs, Md.) for capturing images. Image Pro Plus version 1.3 was used for measurements, and Microsoft Excel version 5.0 was used for data processing. Data obtained from this keratinocyte-microsphere system were in full agreement with data from the macrophage/E. coli system.

The test system of test [3] is macrophage cell line IC-21. The test can be described thus: Fluorescent microsphere ingestion by macrophages. Type of test: cell-based. Conditions: IC-21 macrophages. How it is done: as §1
The experiment described in Example 1 was repeated using the macrophage cell line IC-21 (obtained from the ATCC), which shares phagocytic characteristics with peritoneal macrophages. As shown for keratinocytes and fibroblasts, Compound I and STI reduced, and SLIGRL increased, the number of microspheres ingested by these macrophages which are “professional phagocytic” cells.

In test [4] the test system is Keratinocytes. The experiment in a line: Melanin/melanosome uptake by keratinocytes, Fontana-Mason staining. Type of test: cell-based. The note with it: treated two days, melanin two hours; FIG. 5A; same results with isolated melanosomes (FIG. 5B). How it is done: This example tests the ability of keratinocytes to acquire melanin or melanosomes in vitro, and thus function as a simplified system for melanosome uptake in the skin. Keratinocytes were plated in glass chamber-slides as described earlier, and were treated for two days with SLIGRL, Compound I or STI. At that time, melanin powder (from Sigma, St. Louis, Mo.) was mixed in sterile PBS at 10 μg/ml, and was added to the culture media (1:10 dilution) for two hours. Cells were then washed with PBS and stained with Fontana-Mason (“F&M”) staining. F&M stains silver nitrate-reducing molecules, thereby permitting the identification of melanins inside the keratinocytes. […] This system, therefore, can mimic melanosome transfer and melanin distribution in vivo, as skin keratinocytes use melanin as an UV-protective cap over their nuclei. […] The same results were also observed using melanosomes isolated as described in S. Orlow, et al., J.I.D. 100:55-64 (1993) (FIG. 5B).

The subject of test [5] is macrophage cell line IC-21. The experiment in a line: Vybrant Phagocytosis Assay Kit, fluorescein-labeled E. coli K-12 particles. Type of test: cell-based. The note with it: for phagocytosis, dose-response: STI 0, 0.01, 0.1, 1 mg/ml, Compound I 0.01, 0.1, 1 nM, FIG. 4A, 4B; for % effect (ingestion): treated overnight, 100 nM Compound I, 5 μM SLIGRL, 0.1 mg/ml STI, untreated control = 100, one experiment of three. How it is done:
To better quantify the level of phagocytosis, the “Vybrant™ Phagocytosis Assay Kit” of Molecular Probes (Eugene, Oreg.) was used, following manufacturer's instructions, with modification of cell culture conditions for the IC-21 cell line. This kit uses Fluorescein-labeled E. coli K-12 particles, and is designed for quantifying the effects of drugs or other environmental factors on phagocytic functions. Macrophages were treated overnight with 100 nM of Compound I, 5 μM of SLIGRL, or 0.1 mg/ml of STI, all dissolved in PBS. The ability of the treated macrophages to ingest the fluorescent E. coli, as measured by this kit, is documented in Table 1. This experiment was repeated three times.
In order to verify the quantitative nature of the macrophage-phagocytosis assay, a dose-response experiment was performed. Macrophages were treated with 0, 0.01, 0.1 and 1 mg/ml of STI, and the experiment was performed as described in Example 3. […] Each experiment was repeated three times.

Regarding SLIGRL [reference compound], the actin filaments organization entry with Keratinocytes [1] is reported as “induced actin polymerization around the cell cortex”. For the same molecule, the microsphere ingestion result in test [2] was “increased microsphere ingestion”. In addition, the “intracellular localization of ICAM-1” value in the test with ICAM-1 is “increased and more diffused cytoplasmic membrane staining, and reduced nuclear membrane staining”. Moreover, the “phagocytosis with increasing concentrations” value in the test on Human keratinocytes was “increased phagocytosis”. In addition, the “number of microspheres ingested” value in test [3] was “increased”. For the same molecule, in the test with Keratinocytes [4], the “uptake (internalization) of melanin by keratinocytes” value (“uptake (internalization) of melanin” below) is “dramatically increases the internalization of melanin”. Further, in test [5], the “phagocytosis, dose-response” value is on record as “increase in phagocytosis” and the “% effect (ingestion)” value is given as 331.6 +/− 5.9%.

Consider `CN[C@H](Cc1ccccc1)C(=O)N1CCCC1C(=O)N[C@@H](CCCNC(=N)N)C(=O)c1nc2ccccc2s1` (stereo partly drawn) [Compound I, (S)-N-Methyl-D-phenylalanyl-N-[4-[(aminoiminomethyl)amino]-1-(2-benzothiazolylcarbonyl)butyl]-L-prolinamide], for which the actin filaments organization result in the test with Keratinocytes [1] is given as “reduced the ordered organization of the cell cortex”. Also, in test [2], the microsphere ingestion entry is “reduce microsphere ingestion”. Besides, the “intracellular localization of ICAM-1” value in the test on ICAM-1 is “less staining was observed at the cytoplasmic membrane, and more at the nuclear membrane”. Moreover, the “phagocytosis with increasing concentrations” value in the test on Human keratinocytes is “dose-dependent decrease in phagocytosis”. The “number of microspheres ingested” value in test [3] is reported as “reduced”. For the same molecule, the “uptake (internalization) of melanin” value in the test with Keratinocytes [4] is given as “dramatically reduce the uptake of melanin”. Also, in test [5], the “% effect (ingestion)” value is given as 89.9 +/− 13.6%.

B1: STI: Soybean trypsin inhibitor, a serine protease inhibitor capable of affecting the PAR-2 pathway (protein, UniProt P01070 25-205, looked up)
Trypsin inhibitor A: DFVLDNEGNPLENGGTYYILSDITAFGGIRAAPTGNERCPLTVVQSRNELDKGIGTIISSPYRIRFIAEGHPLSLKFDSFAVIMLCVGIPTEWSVVEDLPEGPAVKIGENKDAMDGWFRLERVSDDEFNNYKLVFCPQQAEDDKCGDIGISIDHDDGTRRLVVSKNKPLVVQFQKLDKESL
As to B1, the actin filaments organization result in the test on Keratinocytes [1] is given as “reduced the ordered organization of the cell cortex”. Moreover, the microsphere ingestion result in test [2] was “reduce microsphere ingestion”. For the same molecule, in the test on ICAM-1, the “intracellular localization of ICAM-1” value is “less staining was observed at the cytoplasmic membrane, and more at the nuclear membrane”. The “% Ingestion” value in the test with Human keratinocytes (STI 0.01%) is listed as 76 +/− 15%; in the test with Human keratinocytes (STI 0.1%), 55 +/− 14%; in the test on Human keratinocytes (STI 1%), 41.6 +/− 11%. Also, the “phagocytosis with increasing concentrations” value in the test on Human keratinocytes is “dose-dependent decrease in phagocytosis”. Besides, the “number of microspheres ingested” value in test [3] is “reduced”. The “uptake (internalization) of melanin” value in the test with Keratinocytes [4] is “dramatically reduce the uptake of melanin”. Besides, the “phagocytosis, dose-response” value in test [5] is given as “dose-response of decreased phagocytosis”. In test [5], the “% effect (ingestion)” value is reported as 56.06 +/− 12.4%.
